What was measured:
[1] = tested on: M6P/IGF-II receptors; test: M6P/IGF-II receptor levels within wounds treated with M6P; type: in vivo; conditions: 3 days post-wounding
[2] = tested on: TGF-β1 mRNA; test: TGF-β1 mRNA in human neonatal fibroblasts by RT-PCR; type: cell-based
Protocol: (§1) Human neonatal fibroblasts were seeded in 100 mm dishes at 1×10^6 cells/dish. […] In addition, cells were treated with two concentrations of Mannose 1-Phosphate (M1P) (100 and 200 μM) for 24 and 48 h. […] Each treatment was run in duplicates and repetitive analyses were performed.
(§2) The procedure used to transcribe the total RNA was described in detail previously (28). Briefly, the reaction was carried out in a total volume of 25 μl containing 1× reverse transcriptase buffer (50 mM Tris-HCl, pH 8.3, 75 mM KCl, 3 mM MgCl2), 10 mM DTT (Dithiothreitol), 2.5 mM each of dNTPs (Deoxynucleotides), 100 μg/ml of acetylated BSA, 4 units of rRNasin (ribonuclease inhibitor), 200 units of SuperScript™ RNase H^−Reverse Transcriptase, 0.1 μg of oligo (dT)12-18 and 1 μg of total RNA. Incubation was carried out for 1 h at 42° C. and was terminated by the addition of an equal volume of cold water.
(§3) A portion of the first strand cDNA reaction was used in PCR, which was carried out in 25 μl containing 16 mM Tris-HCl, pH 8.3, 50 mM KCl, 1.5 mM MgCl2, 0.01% gelatin, 200 μM of each dNTPs, 1 μM each sense and antisense oligonucleotides and 2.5 units of AmpliTaq DNA polymerase. Amplification was carried out for 35 cycles. Each cycle consisted of: denaturation 1 min at 95° C.; annealing at 55° C. (optimal for the pair of oligonucleotides used) for 2 min; and elongation at 72° C., 3 min. For the final cycle elongation was 7 min. Reaction products were separated by 2% agarose gel electrophoresis and were visualized by ethidium bromide staining. Sizes were determined using Q X 174 DNA/Hae III markers. Restriction digests were performed in order to confirm PCR product specificity. Densitometry was used for quantitative analysis of the ethidium bromide stained gels.

[3] = tested on: TGF-β1 activation; test: TGF-β1 activation by prostate adenocarcinoma cells (ELISA); type: cell-based, human
Protocol: (§4) Each measurement was performed in duplicates.
(§5) It has been shown that cancer cells, such as human breast cancer, some melanoma cell lines and prostate adenocarcinoma cell lines, constitutively release biologically active TGF-β1 into the culture medium (24, 25, 29). Since the homotypic cell culture system would be of advantage due to its simplicity, an attempt was made to implement cancer cells as a method for TGF-β1 activation.

[4] = tested on: TGF-β1 mRNA; test: mRNA for TGF-β1 in macrophages by Northern blot; type: cell-based, mouse; conditions: LPS alone or LPS with M6P or DCA, FIG. 2
Protocol: The cells were washed with PBS, followed by addition of the extraction buffer provided with the kit (RNeasy RNA extraction kit). The lysed cells were scraped from the dish and collected in microtubes. Samples were either frozen at −70° C. before analysis or directly assessed following manufacturer protocol. Absorbance at 260 nm and 280 nm was measured and the integrity of RNA was evaluated by denaturing formaldehyde agarose gels stained with ethidium bromide.
Northern blot analysis was carried out as described previously (27). Briefly, total RNA samples (5 μg) were diluted in formaldehyde-MOPS buffer and subjected to electrophoresis in a denaturing 1.2% Sea Kem GTG agarose gel along with the RNA size markers. RNA was transferred to a nitrocellulose membrane by capillary transfer. The blots were prehybridized for 3 h at 42° C. in a solution containing 10% dextran sulfate, 2×Denhardt's solution, 50% formamide, 5×SSPE (0.75 M Sodium chloride, 0.05 M sodium phosphate, 0.005 M ethylenediaminetetraacetic acid)/0.1% SDS, and 250 μg/ml of sheared salmon testis DNA. Hybridization solution was essentially the same except that ^32P dCTP-labeled DNA probe and 150 μg/ml of salmon testis DNA were included. The hybridization was carried out for 16 h at 42° C. […]

[5] = tested on: TGF-β receptor type I mRNA; test: TGF-β receptor type I mRNA in human neonatal fibroblasts by RT-PCR; type: cell-based; conditions: M6P, time course of treatment (24 and 48 h)
Protocol: as §1, §2
A portion of the first strand cDNA reaction was used in PCR, which was carried out in 25 μl containing 16 mM Tris-HCl, pH 8.3, 50 mM KCl, 1.5 mM MgCl2, 0.01% gelatin, 200 μM of each dNTPs, 1 μM each sense and antisense oligonucleotides and 2.5 units of AmpliTaq DNA polymerase. Amplification was carried out for 35 cycles. […] Sizes were determined using Q X 174 DNA/Hae III markers. […] Densitometry was used for quantitative analysis of the ethidium bromide stained gels.

[6] = tested on: TGF-β1 activation; test: TGF-β1 activation by Bowes melanoma cells (ELISA); type: cell-based, human
Protocol: as §4, §5

[7] = tested on: M6P/IGF-II receptor mRNA; test: M6P/IGF-II receptor mRNA in human neonatal fibroblasts by RT-PCR; type: cell-based
Protocol: as §1, §2, §3

[8] = tested on: TGF-β1 activation; test: TGF-β1 activation by HMB-2 melanoma cells (ELISA); type: cell-based, human
Protocol: as §4, §5

[9] = tested on: TGF-β1 activation; test: BAEC treated with retinoic acid, TGF-β1 in conditioned media by ELISA; type: cell-based, bovine
Protocol: The procedures for preparation of conditioned media were described previously (22). Briefly, for the retinoid experiment, BAEC cells were grown to confluency in 35 mm dishes. The cultures were rinsed with PBS (Phosphate Buffered Saline), and incubated in 1 ml of serum-free DMEM containing 0.1% of BSA and retinoic acid (10 μM) or vehicle (0.5% ethanol). The incubation was carried out for 24 h. The medium was aspirated, the cells were washed with PBS and then incubated in 1 ml of DMEM/0.1% BSA for an additional 12 h to produce conditioned medium. Conditioned media were centrifuged and used in the ELISA assay for TGF-β1 evaluation.
Each measurement was performed in duplicates. […]

[10] = tested on: TGF-β1 activation; test: Co-culture of BAEC and BASMC, TGF-β1 in conditioned media by ELISA; type: cell-based, bovine
Protocol: For co-culture experiments, BAECs and BASMCs were seeded separately in 35 mm dishes at a density of 40×10^4 cells in DMEM/10% CS (Calf Serum) or 3.2×10^5 BAECs and 0.8×10^5 BASMCs in the same 35-mm dishes. After cell attachment (approximately 2 h) the cells were rinsed with PBS and incubated in 1 ml of DMEM/0.1% BSA for 6 h to produce conditioned media. Conditioned Media were centrifuged and used in the ELISA assay.
as §4
Preliminary experiments were carried out with the aim to adopt the published co-culture system for screening anti-fibrotic agents.

[11] = tested on: TGF-β1 activation; test: Macrophage activation assay (IC-21 macrophages, LPS, fetal fibroblast conditioned media, ELISA); type: cell-based, mouse
Protocol: (§6) Cultured macrophages were lifted from the dish with 3 ml of PBS. The PBS was balanced with 15 ml of RPMI-1640 containing 10% FBS. The cells were counted and then seeded in 100 mm plates at 1×10^6 cells/dish. When the cultured macrophages reached approximately 70% confluency (2-3 days) they were washed with PBS and RPMI-1640 medium containing 5% FBS and 10 ng/ml LPS was applied (FIG. 1). After 24 h of activation with LPS the cells were washed gently with PBS. At this point conditioned medium from confluent fetal dermal fibroblasts was collected and 5 ml was distributed into each dish containing macrophages. The cells were incubated for an additional 24 h, the media were collected, spun down at 600×g for 10 min and stored at 4° C. before TGF-β1 evaluation by ELISA. Each condition was done in duplicate. The cells, washed with PBS, were harvested for total RNA extraction.
Fetal dermal fibroblasts were seeded in 100 mm dishes at 1×10^6 cell/dish. The cells were grown to confluency (2-3 days). The cultures were washed with PBS and fresh medium, either DMEM supplemented with 10% FBS or AIM-V medium (a serum free medium) for serum-free conditions, was applied for 24 h (FIG. 1). The medium was collected and combined in order to obtain a homogenous pool of latent TGF-β1. The collection of the medium was done just prior to application in the macrophage assay.
as §4

[12] = tested on: TGF-β1 activation; test: Activation of rHLTGF-β1 by macrophages; type: cell-based, mouse; conditions: 200 pg/ml rHLTGF-β1
Protocol: as §6, §4
The substitution in the media with purified recombinant latent form of TGF-β1 was tested in an attempt to determine the requirement for fibroblast conditioned media in the macrophage assay. Only 3.3% of rHLTGF-β1 was activated by macrophages when the treatment with LPS was omitted (Table 5).

[13] = BAEC + RA (10 μM) + test agent 100 μM
[14] = BAEC + RA (10 μM), conditioned medium

## O=C[C@@H](O)[C@@H](O)[C@H](O)[C@H](O)COP(=O)(O)O [M6P, D-mannose 6-phosphate]
[1]
  levels of the M6P/IGF-II receptors within the wounds, in words: downregulated
[2]; M6P 1 μM, 24 h
  expression of TGF-β1 cDNA (RT-PCR): 80.9
[2]; M6P 1 μM, 48 h
  expression of TGF-β1 cDNA (RT-PCR): 86.3
[2]; M6P 10 μM, 24 h
  expression of TGF-β1 cDNA (RT-PCR): 116.2
[2]; M6P 10 μM, 48 h
  expression of TGF-β1 cDNA (RT-PCR): 78.8
[2]; M6P 50 μM, 24 h
  expression of TGF-β1 cDNA (RT-PCR): 119.3
[2]; M6P 50 μM, 48 h
  expression of TGF-β1 cDNA (RT-PCR): 75
[2]; M6P 100 μM, 24 h
  expression of TGF-β1 cDNA (RT-PCR): 95.6
[2]; M6P 200 μM, 24 h
  expression of TGF-β1 cDNA (RT-PCR): 62.5
[2]; M6P 200 μM, 48 h
  expression of TGF-β1 cDNA (RT-PCR): 28.8
[3]; Adenocarcinoma cells, M6P 100 μM, cystamine 100 μM, antibody 1:1500 dil
  % ACTIVE TGF-β1 (STD): 91.8%
[3]; prostate cancer cells
  effect on TGF-β1 activation, in words: no effect
[4]
  levels of mRNA for TGF-β1, in words: remained the same
[5]
  level of TGF-β receptor type I mRNA, in words: unchanged
[6]; BOWES, M6P 100 μM, DCA 100 μM, antibody 1:1500 dil
  % ACTIVE TGF-β1 (STD): 113.5%
[6]; melanoma cells (Bowes)
  effect on TGF-β1 activation, in words: no effect
[7]; 1-100 μM, 24 h
  expression of mRNA for M6P/IGF-II receptor, in words: not affected
[7]; 50-200 μM, 48 h
  expression of mRNA for M6P/IGF-II receptor, in words: decrease
[8]; HMB-2, M6P 100 μM, DCA 100 μM, antibody 1:1500 dil
  % ACTIVE TGF-β1 (STD): 108.4%
[8]; melanoma cells (HMB-2)
  effect on TGF-β1 activation, in words: no effect
[9]; 100 μM, BAEC treated with RA
  inhibitory effect on TGF-β1 activation, in words: no significant inhibitory effects
[9]; [13]
  % Active: 8.1%
  Active TGF-β1: 287 pg/mL
  Total TGF-β1: 3544 pg/mL
[10]; 100 μM
  inhibition of TGF-β1 activation, in words: did not significantly inhibit
[10]; Co-culture + M6P 100 μM
  % Active: 7.5%
  Active TGF-β1: 58 pg/mL
  Total TGF-β1: 770 pg/mL

## Cl.Cl.NCCCCN [Putrescine, putrescine-dihydrochloride]
[11]; 100 μM
  active TGF-β1, % Control (STD): 80.6%

## CC1=C(/C=C/C(C)=C/C=C/C(C)=C/C(=O)O)C(C)(C)CCC1 [RA, all-trans retinoic acid]
[9]; BAEC + RA (10 μM)
  % Active: 10.3%
[9]; [14]
  Active TGF-β1: 276 pg/mL
  Total TGF-β1: 2667 pg/mL

## IGF-II: Recombinant human IGF-II
[11]
  effect on TGF-β1 activation, in words: inhibited TGF-β1 activation
[11]; IGF-II 15 nM
  active TGF-β1, % Control (STD): 65.1%
[11]; IGF-II 30 nM
  active TGF-β1, % Control (STD): 54.3%
[11]; IGF-II 15 and 30 nM
  effect on TGF-β1 activation, in words: dose-dependent inhibitory effect

## rHLTGF-β1: Recombinant human latent TGF-β1
[12]; LPS
  % Active: 12.2%
  Active TGF-β1: 48.8 (3.5) pg/ml
  Total TGF-β1: 399 (44.5) pg/ml
[12]; No LPS
  % Active: 3.3%
  Active TGF-β1: 10.9 (7.2) pg/ml
  Total TGF-β1: 324 (7.2) pg/ml

From patent publication US6750028B1, “Anti-fibrotic agent assay” (Ethicon, Inc, priority 1996, dated 2004)
